Source: the supplement of paper PMC11208160

Assay: recombinant UMI read abundance after kanamycin selection (control-corrected) (log10(CPM+1)); higher = more efficient recombination; extreme values may be limits of the assay; sequences stand for … in AGTGCAGAGAAAATCGGCCAGTTTTCTCTGCCTGCAGTCCGCATGCCGTGGGACCCCTTGGGTTCTAACCTGTTGCCTAGATTTATGCAGCGGACTGCCTTTCTCCCAAAGTGATAAACCGG…AGGTTGGTTTCACT; site = the 11-nt donor
Procedure, shortened: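 Sequencing read counts were converted to CPM, averaged over two replicates and scaled by control-derived factors. Results are given as log10(CPM+1). The reads covered the donor–target junction of recombinant UMIs from a pooled Escherichia coli screen of donor and donor-binding-loop pairs for the IS621 bridge recombinase.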
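Further: IS621 bridge recombinase in Escherichia coli cells against a fixed T5 target plasmid.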

CGTTTGGCATGGACCGGTTTTCCCGGTAATCCGTATTTGCT (site CGTATGGCTAG)
recombinant UMI read abundance (log10): 0.00345

CGTTTGGCATGGACCGGTTTTCCCGGTAATCCGTATTTGCT (site CGTCTGGCTAG)
recombinant UMI read abundance (log10): 0.00793

CGTTTGGCATGGACCGGTTTTCCCGGTAATCCGTATTTGCT (site CGTGTGGCTAG)
recombinant UMI read abundance (log10): 0.00452

CGTTTGGCATGGACCGGTTTTCCCGGTAATCCGTATTTGCT (site CGTTAGGCTAG)
recombinant UMI read abundance (log10): 0

CGTTTGGCATGGACCGGTTTTCCCGGTAATCCGTATTTGCT (site CGTTCGGCTAG)
recombinant UMI read abundance (log10): 0.0122

CGTTTGGCATGGACCGGTTTTCCCGGTAATCCGTATTTGCT (site CGTTGGGCTAG)
recombinant UMI read abundance (log10): 0

CGTTTGGCATGGACCGGTTTTCCCGGTAATCCGTATTTGCT (site CGTTTAGCTAG)
recombinant UMI read abundance (log10): 0

CGTTTGGCATGGACCGGTTTTCCCGGTAATCCGTATTTGCT (site CGTTTCGCTAG)
recombinant UMI read abundance (log10): 0

CGTTTGGCATGGACCGGTTTTCCCGGTAATCCGTATTTGCT (site CGTTTGACTAG)
recombinant UMI read abundance (log10): 0

CGTTTGGCATGGACCGGTTTTCCCGGTAATCCGTATTTGCT (site CGTTTGCCTAG)
recombinant UMI read abundance (log10): 0

CGTTTGGCATGGACCGGTTTTCCCGGTAATCCGTATTTGCT (site CGTTTGGCTAA)
recombinant UMI read abundance (log10): 0.00833

CGTTTGGCATGGACCGGTTTTCCCGGTAATCCGTATTTGCT (site CGTTTGGCTAC)
recombinant UMI read abundance (log10): 0.00533

CGTTTGGCATGGACCGGTTTTCCCGGTAATCCGTATTTGCT (site CGTTTGGCTAG)
recombinant UMI read abundance (log10): 0

CGTTTGGCATGGACCGGTTTTCCCGGTAATCCGTATTTGCT (site CGTTTGGCTAT)
recombinant UMI read abundance (log10): 0.00603

CGTTTGGCATGGACCGGTTTTCCCGGTAATCCGTATTTGCT (site CGTTTGGCTCG)
recombinant UMI read abundance (log10): 0.00605

CGTTTGGCATGGACCGGTTTTCCCGGTAATCCGTATTTGCT (site CGTTTGGCTGG)
recombinant UMI read abundance (log10): 0

CGTTTGGCATGGACCGGTTTTCCCGGTAATCCGTATTTGCT (site CGTTTGGCTTG)
recombinant UMI read abundance (log10): 0

CGTTTGGCATGGACCGGTTTTCCCGGTAATCCGTATTTGCT (site CGTTTGTCTAG)
recombinant UMI read abundance (log10): 0

CGTTTGGCATGGACCGGTTTTCCCGGTAATCCGTATTTGCT (site CGTTTTGCTAG)
recombinant UMI read abundance (log10): 0

CGTTTGGCATGGACCGGTTTTCCCGGTAATCCGTATTTGCT (site CTTTTGGCTAG)
recombinant UMI read abundance (log10): 0

CGTTTGGCATGGACCGGTTTTCCCGGTAATCCGTATTTGCT (site GGTTTGGCTAG)
recombinant UMI read abundance (log10): 0

CGTTTGGCATGGACCGGTTTTCCCGGTAATCCGTATTTGCT (site TGTTTGGCTAG)
recombinant UMI read abundance (log10): 0.00607

CTAAATGCATGGACCGGTTTTCCCGGTAATCCGTATTTGAG (site CTAAATGCTCT)
recombinant UMI read abundance (log10): 2.87

CTAAGCACATGGACCGGTTTTCCCGGTAATCCGTATTTGCT (site CTAAGCACTAG)
recombinant UMI read abundance (log10): 1.9

CTAAGCCCATGGACCGGTTTTCCCGGTAATCCGTATTTGAA (site CTAAGCCCTTT)
recombinant UMI read abundance (log10): 1.25

CTAAGCGCATGGACCGGTTTTCCCGGTAATCCGTATTTGAA (site CTAAGCGCTTT)
recombinant UMI read abundance (log10): 2.02

CTAAGTCCATGGACCGGTTTTCCCGGTAATCCGTATTTGGA (site CTAAGTCCTTC)
recombinant UMI read abundance (log10): 0.16

CTAATAACATGGACCGGTTTTCCCGGTAATCCGTATTTGAC (site CTAATAACTGT)
recombinant UMI read abundance (log10): 2.34

CTAATAACATGGACCGGTTTTCCCGGTAATCCGTATTTGAC (site CTAGTATCTGT)
recombinant UMI read abundance (log10): 0

CTAATAACATGGACCGGTTTTCCCGGTAATCCGTATTTGAT (site CTAATAACTAT)
recombinant UMI read abundance (log10): 2.54

CTAATGACATGGACCGGTTTTCCCGGTAATCCGTATTTGAC (site CTAATGACTGT)
recombinant UMI read abundance (log10): 1.47

CTAATTTCATGGACCGGTTTTCCCGGTAATCCGTATTTGCC (site CTAATTTCTGG)
recombinant UMI read abundance (log10): 1.14

CTACAGACATGGACCGGTTTTCCCGGTAATCCGTATTTGAG (site CTACAGACTCT)
recombinant UMI read abundance (log10): 1.81

CTACGGCCATGGACCGGTTTTCCCGGTAATCCGTATTTGCC (site CTACGGCCTGG)
recombinant UMI read abundance (log10): 0.363

CTACGGGCATGGACCGGTTTTCCCGGTAATCCGTATTTGAG (site CTACGGGCTCT)
recombinant UMI read abundance (log10): 1.72

CTACTACCATGGACCGGTTTTCCCGGTAATCCGTATTTGCT (site CTACTACCTAG)
recombinant UMI read abundance (log10): 0.232

CTACTACCATGGACCGGTTTTCCCGGTAATCCGTATTTGCT (site CTCCTACCTAG)
recombinant UMI read abundance (log10): 0.00711

CTACTACCATGGACCGGTTTTCCCGGTAATCCGTATTTGCT (site CTGCTACCTAG)
recombinant UMI read abundance (log10): 0.00524

CTACTACCATGGACCGGTTTTCCCGGTAATCCGTATTTGCT (site CTTCTACCTAG)
recombinant UMI read abundance (log10): 0

CTACTACCATGGACCGGTTTTCCCGGTAATCCGTATTTGGA (site CTACTAACTTC)
recombinant UMI read abundance (log10): 0.0163

CTACTACCATGGACCGGTTTTCCCGGTAATCCGTATTTGGA (site CTACTACCTTC)
recombinant UMI read abundance (log10): 0.00874

CTACTACCATGGACCGGTTTTCCCGGTAATCCGTATTTGGA (site CTACTAGCTTC)
recombinant UMI read abundance (log10): 0.00519

CTACTACCATGGACCGGTTTTCCCGGTAATCCGTATTTGGA (site CTACTATCTTC)
recombinant UMI read abundance (log10): 1.1

CTACTAGCATGGACCGGTTTTCCCGGTAATCCGTATTTGAA (site CTACTAGCTTT)
recombinant UMI read abundance (log10): 1.95

CTACTATCATGGACCGGTTTTCCCGGTAATCCGTATTTGAC (site CTAATATCTGT)
recombinant UMI read abundance (log10): 0

CTACTATCATGGACCGGTTTTCCCGGTAATCCGTATTTGAC (site CTACTATCTGT)
recombinant UMI read abundance (log10): 2.69

CTACTATCATGGACCGGTTTTCCCGGTAATCCGTATTTGAC (site CTAGTATCTGT)
recombinant UMI read abundance (log10): 0

CTACTATCATGGACCGGTTTTCCCGGTAATCCGTATTTGAC (site CTATTATCTGT)
recombinant UMI read abundance (log10): 0.0113

CTAGAACCATGGACCGGTTTTCCCGGTAATCCGTATTTGAG (site CTAGAACCTCT)
recombinant UMI read abundance (log10): 0.09

CTAGCAGCATGGACCGGTTTTCCCGGTAATCCGTATTTGAC (site CTAGCAGCTGT)
recombinant UMI read abundance (log10): 3.18

CTAGCAGCATGGACCGGTTTTCCCGGTAATCCGTATTTGAC (site CTAGTATCTGT)
recombinant UMI read abundance (log10): 0

CTAGCATCATGGACCGGTTTTCCCGGTAATCCGTATTTGAA (site CTAGCATCTTT)
recombinant UMI read abundance (log10): 2.86

CTAGCATCATGGACCGGTTTTCCCGGTAATCCGTATTTGAA (site CTAGTATCTGT)
recombinant UMI read abundance (log10): 0

CTAGCGTCATGGACCGGTTTTCCCGGTAATCCGTATTTGGA (site CTAGCGTCTTC)
recombinant UMI read abundance (log10): 2.45

CTAGGCACATGGACCGGTTTTCCCGGTAATCCGTATTTGCA (site CTAGGCACTTG)
recombinant UMI read abundance (log10): 1.67

CTAGGGGCATGGACCGGTTTTCCCGGTAATCCGTATTTGTG (site CTAGGGGCTCA)
recombinant UMI read abundance (log10): 1.23

CTAGTAACATGGACCGGTTTTCCCGGTAATCCGTATTTGGA (site CTAATAACTTC)
recombinant UMI read abundance (log10): 1.33

CTAGTAACATGGACCGGTTTTCCCGGTAATCCGTATTTGGA (site CTACTAACTTC)
recombinant UMI read abundance (log10): 0.119

CTAGTAACATGGACCGGTTTTCCCGGTAATCCGTATTTGGA (site CTAGTAACTTC)
recombinant UMI read abundance (log10): 1.98

CTAGTAACATGGACCGGTTTTCCCGGTAATCCGTATTTGGA (site CTATTAACTTC)
recombinant UMI read abundance (log10): 0.00934

CTAGTACCATGGACCGGTTTTCCCGGTAATCCGTATTTGAT (site CTAGTACCTAT)
recombinant UMI read abundance (log10): 0

CTAGTACCATGGACCGGTTTTCCCGGTAATCCGTATTTGAT (site CTAGTATCTGT)
recombinant UMI read abundance (log10): 1.35

CTAGTAGCATGGACCGGTTTTCCCGGTAATCCGTATTTGCC (site CTAGTAGCTGG)
recombinant UMI read abundance (log10): 1.64

CTAGTAGCATGGACCGGTTTTCCCGGTAATCCGTATTTGCC (site CTAGTATCTGT)
recombinant UMI read abundance (log10): 0

CTAGTATCATGGACCGGTTTTCCCGGTAATCCGTATTTGCC (site CTAGTATCTGA)
recombinant UMI read abundance (log10): 2.78

CTAGTATCATGGACCGGTTTTCCCGGTAATCCGTATTTGCC (site CTAGTATCTGC)
recombinant UMI read abundance (log10): 2.28

CTAGTATCATGGACCGGTTTTCCCGGTAATCCGTATTTGCC (site CTAGTATCTGG)
recombinant UMI read abundance (log10): 3.09

CTAGTATCATGGACCGGTTTTCCCGGTAATCCGTATTTGCC (site CTAGTATCTGT)
recombinant UMI read abundance (log10): 2.66

CTAGTGTCATGGACCGGTTTTCCCGGTAATCCGTATTTGAT (site CTAGTATCTGT)
recombinant UMI read abundance (log10): 1.55

CTAGTGTCATGGACCGGTTTTCCCGGTAATCCGTATTTGAT (site CTAGTGTCTAT)
recombinant UMI read abundance (log10): 2.25

CTAGTGTCATGGACCGGTTTTCCCGGTAATCCGTATTTGGC (site CTAGTATCTGT)
recombinant UMI read abundance (log10): 1.29

CTAGTGTCATGGACCGGTTTTCCCGGTAATCCGTATTTGGC (site CTAGTGTCTGC)
recombinant UMI read abundance (log10): 2.17

CTAGTGTCATGGACCGGTTTTCCCGGTAATCCGTATTTGGT (site CTAGTGTCTAC)
recombinant UMI read abundance (log10): 2.6

CTATACACATGGACCGGTTTTCCCGGTAATCCGTATTTGCT (site CTATACACTAG)
recombinant UMI read abundance (log10): 2.38

CTATACACATGGACCGGTTTTCCCGGTAATCCGTATTTGCT (site CTCTACACTAG)
recombinant UMI read abundance (log10): 1.53
